Patent US20020041889A1, “ENHANCING AGENT FOR DEGRADATION OF DESMOSOMES OR STRATUM CORNEUM DESQUAMATION” (priority 1997, published 2002)

Tested on: desmoglein in a stratum corneum sheet (decomposition by trypsin-like and chymotrypsin-like enzymes)
Experiment: Percentage of residual desmoglein in stratum corneum sheets (SDS-PAGE / immunoblot with anti-desmoglein antibody)
Assay type: biochemical, human
Conditions: stratum corneum sheet (2 mg) from healthy subjects coated with 5 μl of a 5% aqueous solution of test compound; moisture content not greater than 30%; 37° C. for one week; average of three measurements; control = 100.00
Description: Method of Evaluation (the percentage of residual desmoglein in stratum corneum sheets) This method of evaluation serves to evaluate the degree of decomposition of desmoglein in a stratum corneum sheet by trypsin-like and chymotrypsin-like enzymes, i.e., the degree of stratum corneum desquamation. […] Stratum corneum sheets were peeled from healthy subjects and soaked in an antiseptic and fungicidal solution (containing 60 μl/ml of kanamycin and 0.5% NaN3) for 30 seconds. Both sides of a stratum corneum sheet weighing 2 mg were coated with 5 μl of a 5% aqueous solution containing each of the test compounds shown in Table I below. A stratum corneum sheet coated with an aqueous solution containing no test compound was regarded as a control. These stratum corneum sheets were subjected to the following procedure. The stratum corneum sheets prepared in the above-described manner were placed under such conditions that the stratum corneum would have a moisture content of not greater than 30% at which the degradation of desmosomes was insufficient, and allowed to stand at 37° C. for one week. Thereafter, using 0.5 ml of a 0.1 M Tris buffer (pH 9) containing 9 M urea, 2% SDS and 1% mercaptoethanol, each of the stratum corneum sheets was extracted at 37° C. for 15 hours. Then, 0.7 ml of a sample buffer for SDS-PAGE (a two-fold concentrated Laemmli solution) was added to the resulting extract and heated for 15 minutes. 10 μl of this solution was taken and subjected to electrophoresis in a gel having a concentration of 7.5%. After electrophoresis, the proteins were transferred to a PVDF membrane and immunologically stained with an anti-desmoglein antibody and alkaline phosphatase-labelled secondary (anti-mouse lg) antibody. Then, the labelled protein was visualized with NBT/BCIP substrate. Thus, the amount of the desired protein was determined. Then, the above evaluation process was repeated except that the above-mentioned 5% aqueous solution of each of the test compounds was replaced with an aqueous solution which had been adjusted to contain 0.1% of L-alanine and 2.9% of N,N,N-trimethylglycine.

| Percentage of residual desmoglein | SMILES |
| --- | --- |
| 54.55% | CC(N)C(=O)O (racemic) [DL-Alanine] |
| 69.44% | NC(CO)C(=O)O (racemic) [DL-Serine] |
| 97.50% | C[C@@H](O)[C@H](N)C(=O)O (racemic) [DL-Threonine] |
| 84.13% | NCC(=O)O [Glycine] |
| 58.41% | N[C@@H](CO)C(=O)O [L-Serine] |
| 90.91% | C[C@@H](O)[C@H](N)C(=O)O [L-Threonine] |
| 86.08% | C[N+](C)(C)CC(=O)[O-] [N,N,N-Trimethylglycine] |

| SMILES | Percentage of residual desmoglein |
| --- | --- |
| O=C(O)[C@@H]1CC(O)CN1 (stereo partly drawn) [4-Hydroxy-L-proline] | 83.04% |
| CCCCCCCCCCCC(=O)NCC(=O)[O-].[K+] [N-Dodecanoylglycine potassium salt] | 78.58% |
